According to patent US6967212B2, “Substituted azole acid derivatives useful as antidiabetic and antiobesity agents and method” (Bristol-Myers Squibb Company, priority 2001, dated 2005):
Marks after values point to notes of the source that are not given here.

Columns and labels:
[1] = molecular target: T1, human PPARγ ligand binding domain (Homo sapiens, UniProt P37231); assay: PPARγ ligand binding study with purified ligand binding domain; details: competition with labeled PPARγ ligand BMS-compound A
T1 sequence (P37231 238-503 limits assumed): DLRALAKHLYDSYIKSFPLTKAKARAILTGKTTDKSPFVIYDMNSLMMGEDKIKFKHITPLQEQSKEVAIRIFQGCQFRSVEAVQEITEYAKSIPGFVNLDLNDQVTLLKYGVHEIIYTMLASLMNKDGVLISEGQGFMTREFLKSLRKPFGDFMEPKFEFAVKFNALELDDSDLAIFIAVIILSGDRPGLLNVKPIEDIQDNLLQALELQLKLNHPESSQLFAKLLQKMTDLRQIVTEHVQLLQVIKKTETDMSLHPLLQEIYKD
Description: Compound Y is a compound synthesized by the scheme outlined in Example 1 herein.

[2] = molecular target: T2, human PPARα ligand binding domain (Homo sapiens, UniProt Q07869); assay: PPARα ligand binding study with purified ligand binding domain; details: competition with labeled PPARα ligand BMS-compound B
T2 sequence (Q07869 239-466 limits assumed): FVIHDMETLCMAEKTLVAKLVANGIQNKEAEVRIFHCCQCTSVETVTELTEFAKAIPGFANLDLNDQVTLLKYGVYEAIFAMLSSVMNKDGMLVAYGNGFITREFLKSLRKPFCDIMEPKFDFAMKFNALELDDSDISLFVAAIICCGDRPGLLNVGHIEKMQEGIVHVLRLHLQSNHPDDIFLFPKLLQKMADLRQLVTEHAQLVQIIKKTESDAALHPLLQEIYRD
Description: FIG. 1B: Illustrates the binding of a labeled authentic PPARα ligand (BMS-compound B) to human PPARα binding domain.
Compound Y is a compound synthesized by the scheme outlined in Example 1 herein. […] The in vitro ligand binding studies with purified ligand binding domain thus show the ability of Compound Y to bind potently to both PPARγ and PPARα. It is however, well known for the nuclear hormone receptor family of transcription factors that (PPARs are members of this family) that a compound which potently binds to (i.e. a ligand) can act as an agonist (ligand which activates) and an antagonist (ligand which inactivates the receptor).

[3] = test system: mouse 3T3-L1 pre-adipocytes; assay: Inhibition of rosiglitazone induced differentiation of 3T3-L1 pre-adipocytes (glycerol release); assay type: cell-based; details: rosiglitazone induced differentiation of 3T3-L1 cells
Method: PPARγ has been considered a major trigger for the adipocyte differentiation process (see Tontonoz et al., Current Biology, 571-576, 1995).
5×10^5 3T3-L1 cells per plate were added to 96 well plates and cultured in DMEM-high glucose and 10% FBS medium for two days, before induction. Cells were induced for 48 hr with 1 μm dexamethasone, 5 μg/ml insulin, and […] isobutylmethylxanthine (IBMX) in the same medium. […] After a total of 5 days incubation, 4 μl of media from each well were collected and diluted into 40 μl of H2O in 96 well ELISA plate, 300 μl of Triglycerides Blank Reagent (Bayer Diagnostics) was added into each well and incubated for 5 min at room temperature. […] The ED50 values were calculated using standard equations for mid-point of the activity inhibition curves.

[4] = molecular target: PPARγ (Chlorocebus sabaeus, UniProt A0A0D9RBU3); assay: Inhibition of rosiglitazone induced SEAP reporter transactivation in CV-1 cells; assay type: cell-based, primate; details: read-out: ED50 for inhibition of rosiglitazone induced transactivation of SEAP gene, PPAR responsive SEAP reporter
Description: The established CV-1 cells (primate kidney origin), that show expression of endogenous PPARγ, were stably transfected with a PPAR responsive secreted alkaline phosphatase (SEAP) reporter gene.
CV-1 cells (these cell express endogenous PPARγ gene) were transfected with a 3×PPRE-SEAP reporter gene DNA construct and stable colonies were selected, expanded and tested for responsiveness to compounds using standard protocols. SEAP reporter gene constructs were made by inserting 3 repeats of the rat fatty acid binding protein PPRE including the 7 nucleotides immediately 5′ to the SV40 early minimal promoter of pSEAP2 (Clontech). 1.2×10^6 CV-1/PPRE-SEAP cells were plated in a 96 well plate one day before compound addition. […] 150 μl aliquots of each concentration were delivered to two non-adjacent wells. […] Media was collected in fresh 96 well plates 40 hrs following incubation with compounds and assayed for SEAP activity. […] The plate was incubated for 5′ in the dark, and then the fluorescence measured in a CytoFluor series 4000 plate reader (Perseptive Biosystems): excitation filter, 450/50 nm; emission filter, 580/50 nm; 8 cycles, 1 minute/cycle, 3 reads/well/cycle. […] The ED50 values were calculated using standard equations for mid-point of the activity inhibition curves.

[5] = molecular target: T3, PPARα (Homo sapiens, UniProt Q07869); assay: PPARα dependent SEAP reporter transactivation in HepG2 cells; assay type: cell-based
T3 construct: HepG2 cells (human liver origin), that express endogenous PPARα gene were stably transfected with a PPAR responsive SEAP reporter gene; endogenous in cells; host or cells: HepG2 cells stably transfected with a PPAR responsive SEAP reporter
T3 sequence (Q07869 1-468): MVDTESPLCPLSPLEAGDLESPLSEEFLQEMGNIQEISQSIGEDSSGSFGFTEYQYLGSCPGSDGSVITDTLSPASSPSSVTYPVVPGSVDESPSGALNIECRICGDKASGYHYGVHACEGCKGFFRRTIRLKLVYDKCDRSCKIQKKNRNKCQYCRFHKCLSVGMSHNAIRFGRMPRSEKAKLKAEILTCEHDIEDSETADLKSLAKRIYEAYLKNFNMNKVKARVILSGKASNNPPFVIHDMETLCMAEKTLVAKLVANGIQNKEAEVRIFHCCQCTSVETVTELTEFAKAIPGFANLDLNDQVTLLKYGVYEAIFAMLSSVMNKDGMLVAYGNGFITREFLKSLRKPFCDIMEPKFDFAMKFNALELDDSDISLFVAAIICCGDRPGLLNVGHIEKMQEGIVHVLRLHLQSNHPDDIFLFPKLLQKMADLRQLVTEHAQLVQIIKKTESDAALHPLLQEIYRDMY
Description: HepG2 cells (human liver origin), that express endogenous PPARα gene were stably transfected with a PPAR responsive SEAP reporter gene.
Reporter gene constructs were made by inserting either 3 repeats of the rat fatty acid binding protein PPRE including the 7 nucleotides immediately 5′, or 4 repeats of the gal4 response element upstream of the SV40 early minimal promoter of pSEAP2 (Clontech), 3×PPRE-SEAP and gal4-SEAP respectively. The chimeric receptor was made by cloning the cDNA encoding the ligand binding domain of human PPAR α in frame and 3′ to the gal4 DNA binding domain (amino acids 1-47) in the mammalian bicistronic expression vector pIRESlneo (Clontech), gal4-PPAR α. […] Following the incubation, media was removed, and endogenous phosphatases were inactivated as indicated above and SEAP activity in 25 μl aliquots of processed media was assayed in clear bottom, black 96 well plate (Falcon) by the addition of 100 μl Attophos reagent (Promega), incubation for 5 minutes in the dark at room temperature, and measuring the increase in fluorescence (excitation 450 nm, emission 580 nm) in a CytoFluor series 4000 plate reader (Perseptive Biosystems) 8 cycles, 1 minute/cycle. The relative rates of fluorescence emission were calculated as fold increase over DMSO control. […] The ED50 values were calculated using standard equations for mid-point of the activity curves.

[6] = test system: Gene expression in WAT; assay: Gene expression profiling of white adipose tissue of treated db/db mice; assay type: in vivo; details: obese diabetic db/db mice
Description: Examples of such genes include adipophilin and keratinocyte fatty acid binding protein, the gene products of these genes are involved in intracellular fatty acid trafficking).
Adipose (fat) tissue is a major place of synthesis of PAI-1, a risk factor for thrombosis, angiotensinogen precursor, a risk factor for hypertension and renin, a risk factor for hypertension (see Ahima and Flier, TEM, 11: 327-332, 2000).

[7] = test system: obese diabetic db/db mice; assay: Plasma glucose and lipids in treated obese diabetic db/db mice; assay type: in vivo; details: 3 mg/kg/day
Description: As illustrated in Table 3 treatment of obese diabetic db/db mice with the dual PPARγ antagonist/PPARα agonist Compound Y results in no significant change in plasma glucose and a significant decrease in plasma triglycerides and free fatty acids levels. As indicated before, changes in lipid and glycemic conditions are two significant potential concerns of reducing PPARγ activity. Based on the study described here it is concluded that obese mammals can be safely treated with a dual PPARγ antagonist/PPARα agonist. The reduction in plasma triglycerides and free fatty acids are likely due to the […] activity of Compound Y.

[8] = test system: diet induced obese mice; assay: Diet induced obese mice: body composition, plasma and liver parameters; assay type: in vivo
Description: As indicated before, changes in lipid and glycemic conditions are two potential concerns of reducing PPARγ activity. Based on the study described here it is concluded that safe reduction of fat mass in an obese diabetic mammal (including human) is possible through administration of a dual PPARγ antagonist/PPARα agonist. This feature is in contrast to the observed hyperlipidemia and hyperglycemia in lipodystrophic patients and in patients with severe mutations in PPARγ gene.
In obese mice, as in obese human, the liver lipid level is elevated. Often, this is accompanied by an increase in plasma liver enzyme ALT level indicating to liver damage. Upon treatment with dual PPARγ antagonist/PPARα agonist Compound Y there was a substantial reduction in liver triglyceride content, although not reaching statistical significance, which was accompanied by a significant reduction in plasma liver enzyme ALT levels. Both these changes are indicative of improvement in liver function as a result of stimulation of PPARα mediated fatty acid oxidation and reduction of lipid synthesis leading to reduced lipid content (see. Torra et al., Current Opinion in Lipidology, 10: 151-159, 1999; Kersten et al., Nature, 405: 421424, 2000).
C57BL/6 mice were fed a diet rich in fat (40%) and sucrose (40%) (see, York {Genetic models of obesity} and Sclafani {Dietary models of obesity}, both in Obesity, Bjorntorp and Brodoff eds. JB Lippincott Company, 1992; McIntosh and Pederson; McNeill. eds. CRC press LLC, 337-398, 1999; Farrelly et al., Proc. Natl. Acad. Sci. 96: 14511-14516, 1999). Under these dietary conditions, C57BL/6 mice gain considerable body weight and become obese. These mice were treated with a dual PPARγ antagonist/PPARα agonist (dose 0.01 to 100 mg/kg/day), administered in a pharmacologically acceptable vehicle (such as but not limited to, 5% CM-cellulose) through orally, intravenous, subcutaneous or intraportal injection, or mixed with food or water, acutely or over an extended period of time. During the course of the study, various parameters such as water and food consumption, body weight gain, body composition by dual emission X-ray analyzer (DEXA, this instrument accurately measures body fat mass, body lean muscle mass and body bone mineral content), body temperature was measured by standard methods. Through tail vein bleeding, blood was collected in heparin-EDTA coated tubes to prevent clotting and blood plasma was separated and analyzed for glucose, free fatty acids, triglycerides and cholesterol using reagent kits available from Roche Diagnostics in a COBAS-MIRA instrument. Insulin and leptin are measured by commercially available ELISA kits. Compounds that act to reduce body weight and or decrease glucose were selected. At the end of the treatment period animals were euthanized by brief exposure to CO2 and internal organs such as liver and white adipose tissue were harvested for additional analysis. These analyses may include, but not limited to, determination of lipid content, and effect on various PPARγ and PPARα target gene expression.

[9] = 10 mg/kg/day once a day, 3 weeks
[10] = 10 mg/kg/day, 3 weeks, P < 0.05
[11] = 3 weeks at 10 mg/kg/day, once a day

Chain of PPARγ (A0A0D9RBU3 entry or part of it): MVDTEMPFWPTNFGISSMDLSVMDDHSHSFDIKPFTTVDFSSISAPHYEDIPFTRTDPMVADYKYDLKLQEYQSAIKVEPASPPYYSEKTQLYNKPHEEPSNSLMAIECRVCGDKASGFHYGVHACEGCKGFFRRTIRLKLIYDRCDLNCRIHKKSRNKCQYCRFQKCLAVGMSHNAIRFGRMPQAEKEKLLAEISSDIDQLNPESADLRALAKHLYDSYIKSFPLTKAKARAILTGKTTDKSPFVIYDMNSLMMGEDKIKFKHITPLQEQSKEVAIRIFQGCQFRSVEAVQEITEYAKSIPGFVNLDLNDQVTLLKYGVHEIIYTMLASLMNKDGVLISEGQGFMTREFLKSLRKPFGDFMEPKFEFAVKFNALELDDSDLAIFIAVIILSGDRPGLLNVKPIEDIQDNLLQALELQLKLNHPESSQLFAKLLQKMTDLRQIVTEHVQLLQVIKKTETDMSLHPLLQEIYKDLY

Compound: Cc1oc(-c2ccccc2)nc1CCOc1cccc(Cc2nn(-c3ccccc3)nc2C(=O)O)c1 [Compound Y]
- IC50 [1]: 69 nM
- IC50 [2]: 69 nM
- ED50 for inhibition of differentiation [3]: 9900 nM
- EC50 [4]: 1500 nM
- EC50 [5]: 587 nM
- Adipophilin gene expression in WAT [6]: 4.1
- Angiotensinogen precursor gene expression in WAT [6]: 0.46
- Glycerol-3 PO4 dehydrogenase gene expression in WAT [6]: 0.39
- HMGic gene expression in WAT [6]: 2.2
- Keratinocyte fatty acid binding protein gene expression in WAT [6]: 3.3
- PAI-1 gene expression in WAT [6]: 0.45
- Free fatty acids [7]: 0.76 ± 0.12 meq/L
- Glucose [7]: 683.0 ± 25.2 mg/dL
- Glucose, change versus vehicle [7]: −13%
- Triglyceride [7]: 145.3 ± 12.5 mg/dL
- Free fatty acids, change versus vehicle ([7]; p < 0.05): −36%*
- Triglyceride, change versus vehicle ([7]; p < 0.05): −45%*
- plasma lipid (free fatty acids, triglycerides and cholesterol) and glycemic (glucose and insulin) parameters (in words) [8]: very little change
- Liver triglycerides ([8]; 10 mg/kg/day): 55.4 ± 7.0 mg/g
- % Fat body mass [8, 9]: 41.5 ± 1.8%
- % Lean body mass [8, 9]: 56.0 ± 1.8%
- % Fat body mass, change versus vehicle [8, 10]: (−12%)*
- % Lean body mass, change versus vehicle [8, 10]: (+11%)*
- ALT, change versus vehicle ([8]; 10 mg/kg/day, P < 0.05): (−38%)*
- Liver triglycerides, change versus vehicle ([8]; 10 mg/kg/day, not statistically significant): (−24%)
- body weight (in words) [8, 11]: no significant reduction in body weight
- increase in lean body mass [8, 11]: 14%
- reduction of body fat mass [8, 11]: 15%
- ALT ([8]; plasma, 10 mg/kg/day): 98.0 ± 12.6 IU/L
- Cholesterol ([8]; plasma, 10 mg/kg/day): 270.4 ± 9.4 mg/dL
- Glucose ([8]; plasma, 10 mg/kg/day): 260.7 ± 12.3 mg/dL
- Insulin ([8]; plasma, 10 mg/kg/day): 8.2 ± 1.2 ng/mL
- Triglyceride ([8]; plasma, 10 mg/kg/day): 105.5 ± 8.1 mg/dL

Compound: CN(CCOc1ccc(CC2SC(=O)NC2=O)cc1)c1ccccn1 (stereo not drawn) [rosiglitazone, reference compound]
- G-protein coupled receptor 26 gene expression in WAT [6]: 4.3
- Renin gene expression in WAT [6]: 13.9

Compound: BMS-250773 [reference compound]
- EC50 [5]: 63 nM

Compound: CCCCCCCN(CCc1ccc(O[C@@](C)(CC)C(=O)O)cc1)C(=O)Nc1ccc(F)cc1F [GW-2331, reference compound]
- IC50 [2]: 410 nM

Compound: CCCCCCCC1SC(CC(=O)N(Cc2ccccc2)Cc2ccccc2)C(=O)N1CCCCc1ccc(C(=O)O)cc1 (stereo not drawn) [GW0072, reference compound]
- IC50 [1]: 280 nM
- ED50 for inhibition of differentiation [3]: 585 nM
